Test results reported in patent US12599676B2, “Cytotoxic imidazo[1,2-A]pyridine compounds and their use in therapy” (MyricX Pharma Limited, priority 2022, dated 2026).

Tests used:
[1] = test system: MX-1 (human breast carcinoma); assay: Cell cytotoxicity CellTiter-Glo, MX-1; type: cell-based; conditions: MX1
Experimental: (§1) Cells were seeded in 96-well microplates and treated with compounds or cisplatin (as a positive control) at 9 increasing concentrations in technical triplicate. […] On day 1, 90 μL of various cell suspensions with the number of cells ranging from 5000-8000 cells/well were seeded into wells of a 96-well plate (Corning). The number of cells to be seeded was previously determined. • 2. All 96-wells plates with cells were placed in an incubator overnight at 37° C. with 5% CO2. • 3. On day 2, cells were observed under a microscope ensuring the cells treated with vehicle control were in good condition. • 4. A dilution series of the test compounds and cisplatin were prepared at 10× the final concentrations required. 10 μL/well of 10× compound solution was added to the corresponding plates. The final volume was 100 μL/well for all the plates. Final DMSO concentration was 0.1%. • 5. On day 5 (after 72 hours of incubation), 50 μL of CTG reagent was added to each well. • 6. Contents were mixed for 5 minutes on an orbital shaker to facilitate cell lysis. • 7. The plate was allowed to incubate at room temperature for 10 minutes to stabilize luminescent signals. […]

[2] = test system: HT1080 (human fibrosarcoma); assay: Cell cytotoxicity CellTiter-Glo, HT1080; type: cell-based; conditions: HT-1080
Experimental: as §1

[3] = test system: CA46 (human B cell lymphoma); assay: Cell cytotoxicity CellTiter-Glo, CA46; type: cell-based
Experimental: as §1

[4] = test system: RKO (human colon carcinoma); assay: Cell cytotoxicity CellTiter-Glo, RKO; type: cell-based
Experimental: as §1

rat hepatocytes = assay: Hepatocyte metabolic stability, rat; type: in vitro ADME
Experimental: (§2) Biological Example 6: Rat hepatocyte half life Certain Example compounds and Comparator Compound 1 were tested for metabolic stability in a metabolic assay using mouse- and rat-derived hepatocytes. Compounds having good metabolic stability in the assay are expected to be especially useful as agents for preventing and/or treating cancer, by having a long half-life in human patients.
(§3) Frozen pooled rat and mouse hepatocytes obtained from LifeTechnologies were thawed and purified according to the manufacturer's instructions. The test compound (4 mM) in DMSO was diluted with acetonitrile to provide a 100 μM sub-stock then further diluted with pH 7.4 Krebs-Henseleit buffer (supplemented with CaCl2, NaHCO3, HEPES, fructose and glycine) to provide a 2 μM working solution. 25 μL of working solution was incubated at 37° C., treated with 25 μL of rat or mouse hepatocyte suspension (containing 1×10^6 cells/mL) and incubated at 37° C. with 5% CO2 level at 95% relative humidity. Wells were incubated for an appropriate time (0, 15, 30, 45, 60 and 75 min) then quenched with 250 μL of acetonitrile containing reference standards diltiazem, 7-ethoxycoumarin and propranolol). The plates were shaken, sonicated for 5 min then cooled to 4° C. until all sampling was complete. All plates were centrifuged at 4000 rpm for 20 min to pellet the debris. 110 μL supernatant was diluted 110 μL water and quantitated using LC-MS/MS.
(§4) A linear regression curve was fitted to a plot of natural logarithm (In) of AUC against time. The T-half (min)=0.693/slope

[5] = test system: DU4475 (human breast carcinoma); assay: Cell cytotoxicity CellTiter-Glo, DU4475; type: cell-based; conditions: DU-4475
Experimental: as §1

Caco-2 cells = assay: Caco-2 cell permeability assay; type: in vitro ADME; conditions: apical to basal Papp, 2 μM, pH 7.4, 2.5 h
Experimental: (§5) Certain Example compounds and Comparative Example 1 were tested for their apical to basal (AB) and basal to apical (BA) permeability in Caco-2 cells.
(§6) Cell Culture: Caco-2 cells were grown for 10 days in 96-well plates in HBSS buffer containing 10 mM HEPES. Both the apical and basal pH was buffered at pH 7.4. The apical/basal volumes were 75 μl and 250 μl respectively. The incubation time was 2.5 h at 37° C. (without shaking) under 5% CO2 & 95% relative humidity.
(§7) Cell Seeding: Cells were seeded at a density of 18750 cells/well (membrane area=0.0804 cm^2) in a 96 well plate.
(§8) AB Assay: 75 μl of cell suspension was added at a density 2.5×10^5 cells/ml to the apical wells. 40 ml media was added to the feeder tray. The plates were placed in the incubator (37° C., 5% CO2 and controlled humidity). The Caco-2 cells were grown for 10 days with a media change on every alternate day.
(§9) BA Assay: 25 μl of cell suspension was added at a density of 7.5×10^5 cells/ml to the bottom side (keeping the plate upside down) of apical wells. The plate (upside down position) was placed in the incubator (37° C., 5% CO2 and 95% Relative humidity) for 2 h. The plate was turned right side up. 75 μl media was added to the apical wells and 40 ml media to the feeder tray.
(§10) Permeablity Assay: The apical and basal wells were washed with buffer (pH 7.4) and 250 μl buffer was added to the wells of the basal plate. 75 μl of compound solution (2 μM, dissolved in water with 1% DMSO) was transferred to the apical wells (n=2). The apical plate was placed onto the basal plate. The lid was placed on to prevent evaporation. The assembly was incubated at 37° C. for 2.5 h (without shaking) under 5% CO2 and 95% relative humidity. After incubation the apical plate was separated from the basal plate. Aliquots were taken out from the acceptor and donor wells, diluted and quantified using LC-MS/MS along with initial donor samples.
(§11) Membrane Integrity Test: Solution in the apical wells was discarded by inverting the plate and soaking onto tissue paper. 250 μl buffer (pH 7.4) was added to each well of basal plate and 75 μl of Lucifer Yellow (LY; 0.1 mg/ml) in buffer (pH 7.4) to the wells of apical plate. The apical plate was placed onto the basal plate and the lid used to prevent evaporation. The assembly was incubated at 37° C. for 1 h (without shaking) under 5% CO2 and 95% relative humidity. The apical plate was separated from the basal plate. Fluorescence (Ex: 432 nm, Em: 530 nm) of aliquots (100 ul) was measured from basal wells. Fluorescence of 100 μl buffer (pH 7.4) and 100 μl LY(0.1 mg/ml) was also measured. Wells having more than 1% fluorescence intensity with respect to 0.1 mg/ml LY were considered non-integrated membrane. Such wells, if any, were not considered for permeability calculation.
(§12) Calculation: Drug was detected and quantified by LC-MS/MS. Data generated took the form of an apparent permeability (Papp) value. Papp=[Va/(AreaxTime)]×(LC-MS Area of Acceptor sample×Sample dilution factor/LC-MS Area of Initial Donor). Va=Volume of Acceptor Well (in ml)=0.25, Vd=Volume of Donor Well (in ml)=0.075, Area=Surface area of the membrane (cm2)=0.0804, Time=Time of incubation (sec)=9000 Results: The results of the assay are shown in Table 3 below.

[6] = Caco-2 cell permeability assay; type: in vitro ADME; conditions: human, Caco-2, pH 7.4, basal to apical Papp, pH 7.4, 2.5 h
Experimental: as §5, §6, §7, §8, §9, §10, §11, §12

mouse hepatocytes = assay: Hepatocyte metabolic stability, mouse; type: in vitro ADME
Experimental: as §2, §3, §4

[7] = test system: SU-DHL-10 cell line (human B cell lymphoma); assay: Cell cytotoxicity in SU-DHL-10 cell line (CellTiter-Glo); type: cell-based; conditions: 72 h treatment, CTG
Experimental: Certain Example compounds of the invention and Comparator Compound 1 were tested in the SU-DHL-10 cell line (human B cell lymphoma). Compounds which show efficacy in this assay are expected to be useful as agents for treating or preventing hyperproliferative disorders such as cancer.
Cells were seeded in 96-well microplates and treated with compounds or cisplatin (as a positive control) at 9 increasing concentrations in technical triplicate. […] On day 1, 90 μL of various cell suspensions with the number of cells ranging from 5000-8000 cells/well were seeded into wells of a 96-well plate (Corning). The number of cells to be seeded was previously determined. • 2. All 96-wells plates with cells were placed in an incubator overnight at 37° C. with 5% CO2. • 3. On day 2, cells were observed under a microscope ensuring the cells treated with vehicle control were in good condition. • 4. A dilution series of the test compounds and cisplatin were prepared at 10× the final concentrations required. 10 μL/well of 10× compound solution was added to the corresponding plates. The final volume was 100 μL/well for all the plates. Final DMSO concentration was 0.1%. • 5. On day 5 (after 72 hours of incubation), 50 μL of CTG reagent was added to each well. • 6. Contents were mixed for 5 minutes on an orbital shaker to facilitate cell lysis. • 7. The plate was allowed to incubate at room temperature for 10 minutes to stabilize luminescent signals.
Luminescence was recorded using an EnVision Multi Label Reader. Data analysis was performed using GraphPad Prism 8.0.
To calculate IC50, a concentration-response curve was generated using a nonlinear regression model with a sigmoidal concentration response. The formula for calculating the % of viable cells was shown below, and the IC50s are automatically generated by GraphPad Prism 8.0.
(LumTest article=luminescence in test article treated well; LumNone treated=luminescence in vehicle treated well; LumMedium control=luminescence in a well containing only medium and no cells; LumNone treated-LumMedium control was set as 100%)

[8] = test system: NCI-H1703 (human lung squamous cell carcinoma); assay: Cell cytotoxicity CellTiter-Glo, NCI-H1703; type: cell-based
Experimental: as §1

DOHH-2 tumor cells = assay: Subcutaneous xenograft DOHH-2 lymphoma model; type: in vivo, CB17/SCID mice; conditions: intraperitoneal dosing (Example 5: 7 or 20 mg/kg; Example 12: 0.7 or 2 mg/kg), QD cycles
Experimental: The in vivo efficacy of certain Example compounds was assessed in a subcutaneous xenograft DOHH-2 Lymphoma Model using 10 female 6-8 week old CB17/SCID Mice. Each mouse was inoculated subcutaneously at the right front region with DOHH-2 tumor cells (5×10^6) in 0.1 ml of PBS mixed with matrigel (1:1 PBS:matrigel) for tumor development. The test compound administration started once the mean tumor size reached approximately 100-150 mm^3.
Compounds were administered either IP (vehicle 10 mM sodium phosphate+0.2% Tween-80 (pH7.4) or orally (vehicle 15 Na2HPO4 buffer (10 mM) (pH 4.5)+0.2% tween 80). Tumor volumes were measured in two dimensions using a caliper, and the volume expressed in mm^3 using the formula: V=(L×W×W)/2, where V is tumor volume, L is tumor length (the longest tumor dimension) and W is tumor width (the longest tumor dimension perpendicular to L).
Mice were dosed with Example 21 orally (12.5 or 25 mg/kg) once a day for 9 consecutive days (FIG. 3). Example 5 was dosed intraperitoneally (7 or 20 mg/kg) in a cycle consisting of administration QD for three days followed by a three day no-dosing period followed by QD dosing for a further three days (FIG. 4). Example 12 was dosed intraperitoneally (0.7 or 2 mg/kg) in a cycle consisting of administration QD for three days followed by a three day no-dosing period followed by QD dosing for a further three days (FIG. 5). In a separate study Example 12 was dosed at […] in a cycle consisting of administration QD for two days followed by either four or six day no-dosing period, and this cycle was repeated three times (FIG. 6).

| SMILES | IC50 [1] [nM] | IC50 [2] [nM] | IC50 [3] [nM] | IC50 [4] [nM] | rHeps t^1/2 (rat hepatocytes) [min] | IC50 [5] [nM] | Caco-2 A-B (Caco-2 cells) [×10⁻⁶ cm/s] | Papp B→A at 2.5 h, 2 μM [6] [×10⁻⁶ cm/s] | mHeps t^1/2 (mouse hepatocytes) [min] | IC50 [7] [nM] | IC50 [8] [nM] | IC50 ([7]; Homo sapiens, SU-DHL10, 72 h) [nM] | tumour volume compared to vehicle (DOHH-2 tumor cells) |
| --- | --- | --- | --- | --- | --- | --- | --- | --- | --- | --- | --- | --- | --- |
| CNCc1cnc2ccc(-c3ccc(F)c(F)c3OCCc3c(C(O)C(C)(C)C)nn(C)c3C)cn12 (single isomer, unassigned) [Example 14, 1-(4-(2-(2,3-difluoro-6-(3-((methylamino)methyl)imidazo[1,2-a]pyridin-6-yl)phenoxy)ethyl)-1,5-dimethyl-1H-pyrazol-3-yl)-2,2-dimethylpropan-1-ol] | 1.4 | 1 | 2 | 2 | 18 | 20 | 0.215 | 5.14 | 26.73 | 0.4 | 4 |  |  |
| CNCc1cnc2ccc(-c3ccc(F)cc3OCCc3c(C(C)O)nn(C)c3C)cn12 (stereo not drawn) [Example 1, 1-{4-[2-(5-fluoro-2-{3-[(methylamino)methyl]imidazo[1,2-a]pyridin-6-yl}phenoxy)ethyl]-1,5-dimethyl-1H-pyrazol-3-yl}ethan-1-ol] |  |  |  |  | 68 |  | 0.1 | 14.1 |  |  |  | 15.3 |  |
| CNCc1cnc2ccc(-c3ccc(F)c(F)c3OCCc3c(C(C)O)nn(C)c3C)cn12 (stereo not drawn) [Example 5, 1-{4-[2-(2,3-difluoro-6-{3-[(methylamino)methyl]imidazo[1,2-a]pyridin-6-yl}phenoxy)ethyl]-1,5-dimethyl-1H-pyrazol-3-yl}ethan-1-ol] |  |  |  |  |  |  | 0.195 | 16 | 51.17 |  |  | 5.9 | significant reduction in tumour volume or reduced growth in tumour volume |
| Cc1c(CCOc2c(-c3ccc4ncc(CN(C)C)n4c3)ccc(F)c2F)c(C(C)O)nn1C (stereo not drawn) [Example 6, 1-(4-(2-(6-(3-((dimethylamino)methyl)imidazo[1,2-a]pyridin-6-yl)-2,3-difluorophenoxy)ethyl)-1,5-dimethyl-1H-pyrazol-3-yl)ethan-1-ol] |  |  |  |  | 15 |  | 3.04 | 22 |  |  |  | 5 |  |
